Laboratory results from ChEMBL document CHEMBL1201862, “PubChem BioAssay data set” (2004).
Activity calls are given as the source filed them.

Experiments:
[1] = potency of ADAM10 substrate cleavage blockers – biochemical, QFRET, dose response (AID 743254);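 note: ADAM10 enzyme with the DM2 quenched FRET peptide as substrate; EDANS fluorescence gain as the protease cuts the substrate; inhibitor potency against ADAM10 proteolytic activity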
[2] = molecular target: Disintegrin and metalloproteinase domain-containing protein 17 (Homo sapiens, UniProt P78536); test: inhibition of ADAM17 substrate cleavage – biochemical, quenched FRET substrate, counter-screen for ADAM10 exosite inhibitor project, dose response (AID 743253)
[3] = molecular target: 1-phosphatidylinositol 4,5-bisphosphate phosphodiesterase beta-3 (Homo sapiens, UniProt Q01970); test: Fluorescence-based biochemical high throughput dose response assay to identify inhibitors of phospholipase C isozymes (PLC-B3).
[4] = molecular target: 1-phosphatidylinositol 4,5-bisphosphate phosphodiesterase gamma-1 (Homo sapiens, UniProt P19174); test: Counterscreen for inhibitors of phospholipase C isozymes (PLC-B3): Fluorescence-based biochemical high throughput dose response assay to identify inhibitors of phospholipase C isozymes (PLC-gamma1).
[5] = viability loss in THP-1 monocytes – THP-1 cells, cytotoxicity control for Vif-APOBEC3G degradation inhibitor project, dose response (AID 1117359); assay type: functional; conditions: THP-1
[6] = molecular target: T1, Protein Tat (Human immunodeficiency virus type 1 group M subtype B (isolate HXB2)(HIV-1), UniProt P04608); assay type: functional;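 note: tat binding to TAR RNA read out by fluorescence polarization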
T1 sequence (P04608 whole entry): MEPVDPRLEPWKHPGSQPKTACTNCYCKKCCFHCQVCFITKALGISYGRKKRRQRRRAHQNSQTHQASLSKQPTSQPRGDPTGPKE

[7] = molecular target: T2, Rac GTPase-activating protein 1 (Homo sapiens, UniProt Q9H0H5); test: blockers of MgcRacGAP-driven Rac1 GTP hydrolysis – biochemical, ADP Hunter fluorescence, primary and confirmatory, confirmation (AID 624330); assay type: functional
T2 sequence (Q9H0H5 whole entry): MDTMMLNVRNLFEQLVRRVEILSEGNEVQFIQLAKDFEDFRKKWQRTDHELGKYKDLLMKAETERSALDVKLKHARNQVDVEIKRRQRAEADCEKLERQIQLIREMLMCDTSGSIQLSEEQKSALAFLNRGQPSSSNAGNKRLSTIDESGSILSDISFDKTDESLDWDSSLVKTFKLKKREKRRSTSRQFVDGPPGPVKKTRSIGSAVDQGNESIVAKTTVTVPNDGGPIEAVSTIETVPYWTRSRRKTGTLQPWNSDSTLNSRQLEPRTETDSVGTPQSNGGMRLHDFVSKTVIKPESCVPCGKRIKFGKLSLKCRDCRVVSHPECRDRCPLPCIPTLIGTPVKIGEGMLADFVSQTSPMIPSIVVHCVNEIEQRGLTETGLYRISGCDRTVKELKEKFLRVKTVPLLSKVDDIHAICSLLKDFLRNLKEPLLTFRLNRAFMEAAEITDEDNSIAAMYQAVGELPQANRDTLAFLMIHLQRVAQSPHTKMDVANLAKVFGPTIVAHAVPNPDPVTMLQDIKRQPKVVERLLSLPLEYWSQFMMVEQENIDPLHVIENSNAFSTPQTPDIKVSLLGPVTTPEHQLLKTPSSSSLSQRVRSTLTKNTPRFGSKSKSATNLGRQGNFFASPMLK

[8] = molecular target: Neurotensin receptor type 1 (Homo sapiens, UniProt P30989); assay type: functional;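 note: Image-based confirmatory dose-response assay measuring agonist activity at NTR1; NTR1-expressing U2OS osteosarcoma cells imaged for beta-arrestin GFP spot formation; agonist potency where compounds increase beta-arrestin recruitment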
[9] = HIV-1 Vif–A3G interaction blockers – biochemical, TR-FRET, GST-Vif 1-94, biotin-A3G peptide, dose response retest, primary screen (AID 1117319); assay type: functional;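 note: TR-FRET signal of purified GST-Vif binding a biotinylated A3G peptide; inhibitors lower the FRET signal by blocking Vif and A3G binding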
[10] = system: Streptococcus; test: GAS UMAA2166 growth inhibition – luminescence, BacTiterGlo, counter-screen for streptokinase expression inhibitor project, dose response (AID 1915); assay type: functional, organism-based;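 note: potency for reduction of bacterial viability or growth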
[11] = loss of viability in HepG2 cells – cell-based, CellTiter-Glo, cherry-picked, cytotoxicity control for Shn3 inhibitor project, dose response (AID 624134); assay type: functional
[12] = Luminescence Cell-Based Dose Retest to Confirm Inhibitors of Cancer Stem Cells. [Related pubchem assays (depositor defined):AID2717, AID2721]; assay type: functional; conditions: Homo sapiens
[13] = reduction of Shn3 3'UTR-driven luciferase in osteoblasts – cell-based, Clone20 osteoblasts, firefly luciferase, cherry-picked, dose response (AID 624132); assay type: functional;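 note: firefly luciferase luminescence from reporter carrying the Shn3 3'UTR in osteoblasts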
[14] = Shn3 3'UTR reporter signal decrease – cell-based, Clone20 osteoblasts, firefly luciferase, cherry-pick, set 2, Schnurri-3 inhibitor project, dose response (AID 720490); assay type: functional;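 note: actives lower the luminescence signal as inhibitors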
[15] = molecular target: T3, Streptokinase A (Streptococcus pyogenes serotype M1, UniProt P10520); test: viability-normalized secreted streptokinase activity reduction – plasminogen activation absorbance, OD405, dose response (AID 1914); assay type: functional, Streptococcus pyogenes M1 GAS;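 note: secreted streptokinase activity via plasminogen activation per viability signal from cell pellet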
T3 sequence (P10520 whole entry): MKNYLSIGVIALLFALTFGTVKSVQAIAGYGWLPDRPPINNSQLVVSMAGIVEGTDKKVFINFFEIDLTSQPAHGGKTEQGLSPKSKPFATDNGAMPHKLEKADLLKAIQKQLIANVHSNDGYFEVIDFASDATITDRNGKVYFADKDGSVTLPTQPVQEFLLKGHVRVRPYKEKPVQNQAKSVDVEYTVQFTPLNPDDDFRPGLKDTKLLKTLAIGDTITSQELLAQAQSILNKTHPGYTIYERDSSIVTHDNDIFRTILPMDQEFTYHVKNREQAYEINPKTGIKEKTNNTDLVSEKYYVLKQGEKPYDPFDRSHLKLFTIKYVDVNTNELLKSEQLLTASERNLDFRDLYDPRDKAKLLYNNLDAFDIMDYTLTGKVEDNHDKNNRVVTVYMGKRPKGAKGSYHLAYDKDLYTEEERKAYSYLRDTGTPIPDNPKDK

[16] = system: Streptococcus sp. 'group A'; test: Streptococcus pyogenes SK(-)GAS viability under kanamycin – luminescence, BacTiterGlo, confirmation, counter-screen for streptokinase expression inhibitor project, dose response (AID 1900); assay type: functional, organism-based
[17] = PAX5 cellular inhibition readout – cell-based, plate reader, dry powder samples, selectivity assay for PAX8 inhibitor project, dose response (AID 743047); assay type: functional;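 note: HEK293 cells carrying a Pax5 driven CD19 promoter luciferase reporter; potency of inhibitors that lower reporter luminescence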
[18] = IGROV1 cell killing – plate reader, dry powder samples, PAX8 inhibitor project, dose response (AID 743043); assay type: functional, cell-based; conditions: IGROV-1
[19] = OVCAR4 cell viability loss – plate reader, dry powder, SA11, cytotoxicity control for PAX8 inhibitor project, dose response (AID 743150); assay type: functional, cell-based; conditions: OVCAR-4
[20] = COV362 cell viability loss – plate reader, dry powder, SA12, cytotoxicity control for PAX8 inhibitor project, dose response (AID 743144); assay type: functional, cell-based
[21] = PAX8-dependent cell viability loss – plate reader, dry powder, dose response (AID 743049); assay type: functional, cell-based
[22] = COV434 cell viability loss – plate reader, dry powder, SA7, cytotoxicity control for PAX8 inhibitor project, dose response (AID 743145); assay type: functional, cell-based
[23] = OVCAR-3 cell viability loss – plate reader, dry powder samples, PAX8 inhibitor project, dose response (AID 743044); assay type: functional, cell-based
[24] = OV-90 cell viability loss – plate reader, dry powder, SA8, PAX8 inhibitor project, dose response (AID 743149); assay type: functional, cell-based
[25] = molecular target: Paired box protein Pax-8 (Homo sapiens, UniProt Q06710); test: PAX8 transcriptional activity inhibition in RMG-I – RMG-I cells, luciferase, cherry-pick, dose response (AID 687027); assay type: functional, cell-based;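 note: luciferase reporter driven by Pax8 target thyroperoxidase promoter measured by SteadyGlo luminescence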
[26] = inhibitors acting on PAX2 in cells – cell-based, plate reader, dry powder samples, selectivity assay for PAX8 inhibitor project, dose response (AID 743048); assay type: functional;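 note: HEK293 cells carrying a WT1 promoter luciferase reporter driven by expressed Pax2; potency is for inhibition of Pax2 driven reporter signal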
[27] = molecular target: T4, Protein RecA (Mycobacterium tuberculosis, UniProt P9WHJ3); test: Fluorescence Cell-Free Homogeneous Dose Retest to Identify Inhibitors of RecA-Intein Splicing Activity. [Related pubchem assays (depositor defined):AID2097, AID2223, AID489010, AID492950]; assay type: functional
T4 sequence (P9WHJ3 whole entry): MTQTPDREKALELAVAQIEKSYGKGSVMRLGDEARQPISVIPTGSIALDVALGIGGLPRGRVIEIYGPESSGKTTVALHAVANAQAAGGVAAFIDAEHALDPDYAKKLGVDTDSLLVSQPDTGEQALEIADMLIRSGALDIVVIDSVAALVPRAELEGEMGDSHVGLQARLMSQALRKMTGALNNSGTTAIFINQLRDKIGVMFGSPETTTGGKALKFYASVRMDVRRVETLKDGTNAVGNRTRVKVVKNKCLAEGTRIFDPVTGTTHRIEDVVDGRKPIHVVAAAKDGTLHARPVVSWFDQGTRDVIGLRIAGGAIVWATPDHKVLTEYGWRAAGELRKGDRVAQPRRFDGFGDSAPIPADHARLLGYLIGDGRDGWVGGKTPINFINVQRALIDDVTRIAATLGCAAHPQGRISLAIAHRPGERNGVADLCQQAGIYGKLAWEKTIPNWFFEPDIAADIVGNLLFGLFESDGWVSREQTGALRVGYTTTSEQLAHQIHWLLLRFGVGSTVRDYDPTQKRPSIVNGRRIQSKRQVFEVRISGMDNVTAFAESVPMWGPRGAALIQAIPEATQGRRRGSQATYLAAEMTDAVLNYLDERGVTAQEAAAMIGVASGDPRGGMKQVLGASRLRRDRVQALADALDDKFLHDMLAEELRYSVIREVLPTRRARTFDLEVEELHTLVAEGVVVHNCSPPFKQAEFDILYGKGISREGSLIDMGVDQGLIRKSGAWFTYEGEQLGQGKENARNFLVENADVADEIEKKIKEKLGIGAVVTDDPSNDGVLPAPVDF

[28] = molecular target: T5, Polyadenylate-binding protein 1 (Homo sapiens, UniProt P11940); test: MLLE binding blockers, Cy5 peptide tracer – biochemical, fluorescence polarization, Cy5-PAM2 peptide, secondary, miRNA deadenylation inhibitor project, dose response (AID 602260); assay type: functional; conditions: read-out: IC50_Mean
[29] = molecular target: T5, Polyadenylate-binding protein 1; test: MLLE domain peptide-binding blockers, IC50 – biochemical, fluorescence polarization, FITC-PAM2 peptide, dose response (AID 602259); assay type: functional; conditions: read-out: IC50_Mean

T5 sequence (P11940 whole entry, the tested form may be a part): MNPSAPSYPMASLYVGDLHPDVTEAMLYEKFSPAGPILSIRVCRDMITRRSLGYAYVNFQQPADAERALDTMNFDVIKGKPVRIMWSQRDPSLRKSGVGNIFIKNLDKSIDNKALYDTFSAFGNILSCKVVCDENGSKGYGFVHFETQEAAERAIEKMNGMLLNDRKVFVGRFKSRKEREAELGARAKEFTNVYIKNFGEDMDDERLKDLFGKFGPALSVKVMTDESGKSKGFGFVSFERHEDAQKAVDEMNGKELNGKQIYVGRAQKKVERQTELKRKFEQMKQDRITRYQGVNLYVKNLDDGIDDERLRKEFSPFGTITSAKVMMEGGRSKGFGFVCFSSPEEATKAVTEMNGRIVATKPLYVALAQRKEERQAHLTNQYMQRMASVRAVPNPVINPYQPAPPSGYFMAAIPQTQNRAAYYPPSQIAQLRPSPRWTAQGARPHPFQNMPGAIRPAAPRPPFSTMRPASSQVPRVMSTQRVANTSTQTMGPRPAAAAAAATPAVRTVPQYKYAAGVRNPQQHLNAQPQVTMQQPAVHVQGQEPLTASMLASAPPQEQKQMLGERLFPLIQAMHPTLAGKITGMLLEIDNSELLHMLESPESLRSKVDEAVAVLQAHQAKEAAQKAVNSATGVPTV
Disintegrin and metalloproteinase domain-containing protein 17, sequence (P78536 whole entry, the tested form may be a part): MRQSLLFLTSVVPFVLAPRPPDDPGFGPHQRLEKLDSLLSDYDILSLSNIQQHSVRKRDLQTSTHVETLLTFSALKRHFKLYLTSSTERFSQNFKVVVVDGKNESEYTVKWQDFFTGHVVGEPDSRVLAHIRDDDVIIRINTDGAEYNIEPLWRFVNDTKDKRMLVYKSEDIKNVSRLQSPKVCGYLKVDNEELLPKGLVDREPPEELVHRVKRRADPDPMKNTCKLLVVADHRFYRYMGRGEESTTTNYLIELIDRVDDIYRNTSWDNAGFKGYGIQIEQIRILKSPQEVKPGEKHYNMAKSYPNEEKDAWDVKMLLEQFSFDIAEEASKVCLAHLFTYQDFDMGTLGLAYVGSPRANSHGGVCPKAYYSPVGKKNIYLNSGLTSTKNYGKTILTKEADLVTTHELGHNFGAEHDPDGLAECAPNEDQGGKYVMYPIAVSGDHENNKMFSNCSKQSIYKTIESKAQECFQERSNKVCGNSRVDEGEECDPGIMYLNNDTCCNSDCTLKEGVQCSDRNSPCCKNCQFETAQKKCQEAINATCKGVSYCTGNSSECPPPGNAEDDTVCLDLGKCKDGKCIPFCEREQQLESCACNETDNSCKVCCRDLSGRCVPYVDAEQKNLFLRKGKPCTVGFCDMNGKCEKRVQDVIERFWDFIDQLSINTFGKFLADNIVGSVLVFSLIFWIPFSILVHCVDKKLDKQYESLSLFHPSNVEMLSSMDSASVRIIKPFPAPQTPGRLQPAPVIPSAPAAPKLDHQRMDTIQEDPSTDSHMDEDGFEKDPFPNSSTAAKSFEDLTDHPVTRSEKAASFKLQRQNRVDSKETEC
1-phosphatidylinositol 4,5-bisphosphate phosphodiesterase beta-3, sequence (Q01970 whole entry): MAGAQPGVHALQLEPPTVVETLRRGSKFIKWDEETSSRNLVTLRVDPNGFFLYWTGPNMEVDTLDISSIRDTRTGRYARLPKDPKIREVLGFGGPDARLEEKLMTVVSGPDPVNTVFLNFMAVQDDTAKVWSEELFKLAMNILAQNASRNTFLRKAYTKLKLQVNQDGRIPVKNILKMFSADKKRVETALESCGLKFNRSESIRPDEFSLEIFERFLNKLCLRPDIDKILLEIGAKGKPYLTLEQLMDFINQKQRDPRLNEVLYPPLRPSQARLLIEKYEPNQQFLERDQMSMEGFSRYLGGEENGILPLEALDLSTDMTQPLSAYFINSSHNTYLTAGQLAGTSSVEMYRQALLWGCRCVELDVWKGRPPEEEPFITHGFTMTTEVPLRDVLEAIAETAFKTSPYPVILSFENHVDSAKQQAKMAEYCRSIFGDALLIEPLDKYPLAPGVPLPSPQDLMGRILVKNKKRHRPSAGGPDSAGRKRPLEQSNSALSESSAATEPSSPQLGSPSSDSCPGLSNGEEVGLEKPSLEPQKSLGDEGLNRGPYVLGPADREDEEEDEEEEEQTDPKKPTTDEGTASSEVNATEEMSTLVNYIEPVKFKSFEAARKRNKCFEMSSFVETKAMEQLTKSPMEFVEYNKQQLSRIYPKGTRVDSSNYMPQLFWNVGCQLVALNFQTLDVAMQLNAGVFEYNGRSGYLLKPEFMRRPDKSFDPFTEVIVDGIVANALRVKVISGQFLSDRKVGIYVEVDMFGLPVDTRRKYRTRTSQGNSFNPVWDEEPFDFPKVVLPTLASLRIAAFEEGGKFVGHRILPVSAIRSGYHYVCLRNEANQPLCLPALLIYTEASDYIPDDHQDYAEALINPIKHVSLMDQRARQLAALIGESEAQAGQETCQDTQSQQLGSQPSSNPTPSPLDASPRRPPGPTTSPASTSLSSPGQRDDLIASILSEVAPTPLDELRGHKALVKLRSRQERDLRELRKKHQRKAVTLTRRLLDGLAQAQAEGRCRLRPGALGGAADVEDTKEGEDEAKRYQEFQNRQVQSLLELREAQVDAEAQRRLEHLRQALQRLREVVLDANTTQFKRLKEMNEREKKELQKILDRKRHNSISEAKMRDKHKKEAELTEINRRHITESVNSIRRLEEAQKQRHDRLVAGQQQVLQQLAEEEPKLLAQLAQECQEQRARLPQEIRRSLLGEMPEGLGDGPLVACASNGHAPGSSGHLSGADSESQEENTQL
Neurotensin receptor type 1, sequence (P30989 whole entry): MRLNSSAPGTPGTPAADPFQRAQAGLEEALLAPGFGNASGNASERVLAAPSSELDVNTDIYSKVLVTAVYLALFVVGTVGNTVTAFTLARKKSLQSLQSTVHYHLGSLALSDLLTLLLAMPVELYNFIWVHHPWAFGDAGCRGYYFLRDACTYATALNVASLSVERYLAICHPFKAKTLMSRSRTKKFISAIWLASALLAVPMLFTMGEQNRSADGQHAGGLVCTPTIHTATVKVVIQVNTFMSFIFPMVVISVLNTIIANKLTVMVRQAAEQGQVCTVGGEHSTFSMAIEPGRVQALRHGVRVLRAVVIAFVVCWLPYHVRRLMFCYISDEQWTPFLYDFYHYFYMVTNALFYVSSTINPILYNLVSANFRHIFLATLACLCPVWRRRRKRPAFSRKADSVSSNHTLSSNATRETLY
1-phosphatidylinositol 4,5-bisphosphate phosphodiesterase gamma-1, sequence (P19174 whole entry): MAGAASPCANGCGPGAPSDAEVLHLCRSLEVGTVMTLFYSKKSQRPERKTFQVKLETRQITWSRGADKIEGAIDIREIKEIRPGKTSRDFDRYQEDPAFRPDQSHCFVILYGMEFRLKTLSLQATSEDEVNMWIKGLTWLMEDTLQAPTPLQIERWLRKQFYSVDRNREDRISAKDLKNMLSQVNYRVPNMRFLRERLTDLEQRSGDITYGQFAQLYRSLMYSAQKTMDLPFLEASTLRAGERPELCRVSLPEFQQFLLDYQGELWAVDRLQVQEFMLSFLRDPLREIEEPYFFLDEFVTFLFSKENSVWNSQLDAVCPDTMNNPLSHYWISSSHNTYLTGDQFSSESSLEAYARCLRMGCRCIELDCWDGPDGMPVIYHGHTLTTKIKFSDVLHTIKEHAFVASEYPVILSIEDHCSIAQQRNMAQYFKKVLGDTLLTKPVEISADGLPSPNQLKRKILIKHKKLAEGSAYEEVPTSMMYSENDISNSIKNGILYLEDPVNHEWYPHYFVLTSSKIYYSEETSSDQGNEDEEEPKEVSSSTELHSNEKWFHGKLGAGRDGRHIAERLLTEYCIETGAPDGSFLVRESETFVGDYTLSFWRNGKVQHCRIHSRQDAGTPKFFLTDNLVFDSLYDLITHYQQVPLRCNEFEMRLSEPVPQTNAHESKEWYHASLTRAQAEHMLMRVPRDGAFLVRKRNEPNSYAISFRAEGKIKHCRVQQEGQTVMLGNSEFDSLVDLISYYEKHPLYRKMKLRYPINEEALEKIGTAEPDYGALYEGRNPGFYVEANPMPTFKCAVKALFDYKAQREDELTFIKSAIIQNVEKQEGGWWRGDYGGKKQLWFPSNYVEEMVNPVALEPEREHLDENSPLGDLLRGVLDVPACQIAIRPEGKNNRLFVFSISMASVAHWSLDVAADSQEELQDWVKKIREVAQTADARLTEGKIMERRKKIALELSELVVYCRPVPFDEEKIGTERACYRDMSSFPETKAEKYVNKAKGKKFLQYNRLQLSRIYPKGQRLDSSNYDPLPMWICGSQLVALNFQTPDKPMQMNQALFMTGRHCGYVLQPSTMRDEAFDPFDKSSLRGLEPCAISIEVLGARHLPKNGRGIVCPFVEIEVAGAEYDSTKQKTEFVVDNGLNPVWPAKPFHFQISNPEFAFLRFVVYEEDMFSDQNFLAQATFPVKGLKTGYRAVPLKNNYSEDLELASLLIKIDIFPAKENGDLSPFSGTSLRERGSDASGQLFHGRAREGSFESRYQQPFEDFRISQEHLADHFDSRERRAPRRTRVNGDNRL
Paired box protein Pax-8, sequence (Q06710 whole entry): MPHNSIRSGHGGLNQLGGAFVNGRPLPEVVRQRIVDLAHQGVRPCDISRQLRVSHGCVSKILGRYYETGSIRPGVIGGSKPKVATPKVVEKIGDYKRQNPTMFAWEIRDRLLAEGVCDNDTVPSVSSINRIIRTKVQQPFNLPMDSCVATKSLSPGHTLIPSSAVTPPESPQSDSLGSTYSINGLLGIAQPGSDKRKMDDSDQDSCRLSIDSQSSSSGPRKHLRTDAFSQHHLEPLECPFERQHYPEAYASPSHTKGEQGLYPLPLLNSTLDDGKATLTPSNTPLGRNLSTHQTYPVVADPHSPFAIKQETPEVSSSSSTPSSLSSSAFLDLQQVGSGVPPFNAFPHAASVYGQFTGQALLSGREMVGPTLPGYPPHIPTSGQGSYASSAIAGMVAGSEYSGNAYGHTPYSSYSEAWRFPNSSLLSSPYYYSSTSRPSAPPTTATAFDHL

With `CSc1cccc(NC(=O)CCCOc2ccc(Cl)cc2C)c1` the IC50 [1] was 65.6 µM (inactive) and the IC50 [2] was > 69.5 µM (inactive).
With `Cc1cc(C(=O)NNC(=S)NCC(C)C)cs1` the IC50 [3] was > 122 µM (inactive) and the IC50 [4] was > 122 µM (inactive).
For `COc1ccc(Br)cc1CNc1ccc(O)cc1`, the CC50 [5] was > 40 µM (active), the IC50 [6] was 46.7 µM (inconclusive) and the IC50 [7] was 26.8 µM (active).
With `Cc1ccc(C(=O)Nc2nnc(NC(=S)Nc3ccccc3)s2)cc1` the IC50 [2] was > 69.5 µM (inactive) and the EC50 [8] was 7.59 µM (active).
In the case of `CCC(Sc1nc(O)cc(-c2ccccc2)n1)C(=O)O` (stereo unspecified), the IC50 [9] is reported as > 100 µM (active).
For `Cc1cccc(NS(=O)(=O)c2ccc(C3CCCCC3)cc2)c1`, the EC50 [10] was 6.98 µM (active), the AC50 [11] was > 70 µM (inactive) and the AC50 [12] was 5.27 µM (active). For the same compound, the AC50 [13] was 5.13 µM (active), the AC50 [14] was 4.66 µM (active) and the EC50 [15] was 5.02 µM (active). The EC50 [16] was 6.43 µM (active).
For `Cn1c(CCN2CCCC2)nc2cc(NS(=O)(=O)c3ccc(Cl)cc3)ccc21`, the AC50 [17] was 52.5 µM (active), the AC50 [18] was 26.9 µM (active) and the AC50 [19] was 16.8 µM (active). For the same compound, the AC50 [20] was 20.2 µM (active), the AC50 [21] was 12.8 µM (active) and the AC50 [22] was 46.1 µM (active). For the same compound, the AC50 [23] was 18.9 µM (active), the AC50 [24] was > 100 µM (inactive) and the AC50 [25] was 6.57 µM (active). The AC50 [26] was 72.5 µM (active).
In the case of `Cc1ccc(C(=O)N/N=C\c2cc(Br)c(Br)o2)cn1`, the CC50 [5] is reported as 18.2 µM (active), the EC50 [27] is reported as > 380 µM (inconclusive) and the IC50 [28] is reported as > 66 µM (inactive). The IC50 [29] was 46.3 µM (inactive).
